The test system of the assay is breast cancer cell line ZR-75-1. Description: Inhibition of proliferation of breast cancer cell line ZR-75-1 (CellTiter-Glo). Particulars: Homo sapiens, 240 h, proliferation of ZR-75-1 cells, 10 days of incubation, read-out: IC50 (KAT6A). Format: cell-based. In general terms: ATP-based viability assays read luminescence as a measure of living cells.

The results in this text go back to patent US20260174778A1, “SULFONAMIDE COMPOUND, AND PREPARATION METHOD THEREFOR AND USE THEREOF” (SHANGHAI HENLIUS BIOTECH, INC., priority 2023, published 2026).

The structures appear in SMILES notation.

With `COc1ccccc1S(=O)(=O)Nc1noc2cc(Cn3cccn3)cc(OC)c12` [PF-8144, reference compound], the IC50 fell in the range of 500 to 2000 pM.

`COc1ccc2c(c1S(=O)(=O)Nc1noc3cc(Cn4cccn4)c(F)c(OC)c13)OCCO2` [Compound 28, N-(6-((1H-Pyrazol-1-yl)methyl)-5-fluoro-4-methoxybenzo[d]isoxazol-3-yl)-6-methoxy-2,3-dihydrobenzo[b][1,4]dioxine-5-sulfonamide]: the half-maximal inhibitory concentration (IC50) is under 500 pM.

With `COc1ccc2c(c1S(=O)(=O)Nc1noc3cc(Cn4cccn4)c(F)c(OC)c13)OCC=C2` [Compound 101, N-(6-((1H-Pyrazol-1-yl)methyl)-5-fluoro-4-methoxybenzo[d]isoxazol-3-yl)-7-methoxy-2H-chromene-8-sulfonamide], the IC50 is under 500 pM.

Regarding `COc1ccc2c(c1S(=O)(=O)Nc1noc3cc(Cn4cccn4)c(F)c(OC)c13)OCCN2C` [Compound 109, N-(6-((1H-Pyrazol-1-yl)methyl)-5-fluoro-4-methoxybenzo[d]isoxazol-3-yl)-7-methoxy-4-methyl-3,4-dihydro-2H-benzo[b][1,4]oxazine-8-sulfonamide], the IC50 is under 500 pM.

Consider `COc1ccc2c(c1S(=O)(=O)Nc1noc3cc(Cn4cccn4)c(F)c(OC)c13)OCCC2=O` [Compound 42, N-(6-((1H-Pyrazol-1-yl)methyl)-5-fluoro-4-methoxybenzo[d]isoxazol-3-yl)-7-methoxy-4-oxochromane-8-sulfonamide], for which the IC50 was under 500 pM.

The IC50 is the concentration that inhibits the measured activity by half.
